Measurements published in US11849742B2, “Tasteful natural sweetener and flavor” (priority 2018, dated 2023).
Each block holds one compound with its values, some of them ahead of it.

Experiments:
[1] = non-sugar natural sweeteners of Momordica grosvenori juice or extract; cited from earlier work
[2] = Kinetics of reaction: degradation of Phe and Reb-A, Gluc, Xyl, Suc at various pH-conditions (HPLC/MS); format: physicochemical
Experimental: Quantitative evaluation was performed using external standardization.
Kinetics of Reaction in dependence of pH-conditions

[3] = Assay to test reducing power (iron-III reduction); conditions: iron-III reduction and radical scavenging (FIG. 49, FIG. 50); amino acids and Reb-A, 100° C., pH 7.8
Experimental: 0.2 M Sodium phosphate buffer, pH=6.6; 500 mg Potassium ferric(III)cyanide/50 mL water, 10% Trichloroacetic acid; 20 mg Iron-III-Chloride/20 mL water; Calibration samples were prepared with Ascorbic acid in a concentration of 0-100 μg/mL 0.2 M Sodium phosphate buffer, pH=6.6 (freshly prepared); as negative control sample water was used.
Samples in aqueous solution were used as such or diluted in 0.2 M Sodium phosphate buffer, pH=6.6.
A 1 mL sample (or calibration standard) was mixed with 1 mL 0.2 M Sodium phosphate buffer, pH=6.6 and 1 ml Potassium ferricyanide solution. The sample was incubated and protected from light at 50° C. for 20 min.
To the solution was added 1 mL Trichloroacetic acid with thorough mixing.
A 1 mL of the mixture was diluted with 1 ml H2O and 0.2 ml Iron-III-chloride and reacted for 10 minutes; The absorbance was then determined at 700 nm against H2O.
10 mM of amino acid and/or 10 mM sugar were dissolved in 10 ml 0.1 mM KH2PO4-buffer, pH=7.8. […]
1 ml sample (or calibration standard) solution) was mixed with 0.2 M Sodium phosphate buffer (pH=6.6) and 1 ml Potassium ferric(III)cyanide solution in water (1% w/v) and incubated at 50° C. for 20 minutes. […] The sample was incubated for 10 minutes and absorbance read at 700 nm against a water control. […]
Quantification was performed by linear regression of calibration test results for ascorbic acid. […]

Compound: OC[C@@H](O)[C@@H](O)[C@H](O)[C@H](O)CO [D-mannitol]
natural sweetness, times of that of sugar [1]: 0.55-0.65 times of that of sugar

% degradation ([2]; pH = 5.5): 3.65%
% degradation ([2]; pH = 7.0): 4.6%
% degradation ([2]; pH = 8.5): 7.62%
Compound: N[C@@H](CCC(=O)O)C(=O)O [Glu]

Compound: C=C1C[C@@]23CC[C@H]4[C@@](C)(CCC[C@@]4(C)C(=O)O[C@@H]4O[C@H](CO)[C@@H](O)[C@H](O)[C@H]4O)[C@@H]2CC[C@]1(O[C@@H]1O[C@H](CO)[C@@H](O)[C@H](O[C@@H]2O[C@H](CO)[C@@H](O)[C@H](O)[C@H]2O)[C@H]1O[C@@H]1O[C@H](CO)[C@@H](O)[C@H](O)[C@H]1O)C3 [Reb-A, Rebaudioside A]
anti-oxidant properties [3]: substantial anti-oxidant properties

Compound: C[C@H](CC[C@@H](O[C@@H]1O[C@H](CO)[C@@H](O)[C@H](O)[C@H]1O[C@@H]1O[C@H](CO)[C@@H](O)[C@H](O)[C@H]1O)C(C)(C)O)[C@H]1CC[C@@]2(C)[C@H]3CC=C4[C@@H](CC[C@H](O[C@@H]5O[C@H](CO[C@@H]6O[C@H](CO)[C@@H](O)[C@H](O)[C@H]6O)[C@@H](O)[C@H](O)[C@H]5O)C4(C)C)[C@]3(C)[C@H](O)C[C@]12C [mogroside IV]
natural sweetness, times of that of sugar [1]: 126 times of that of sugar

Compound: C[C@H](CC[C@@H](O[C@@H]1O[C@H](CO[C@@H]2O[C@H](CO)[C@@H](O)[C@H](O)[C@H]2O)[C@@H](O)[C@H](O)[C@H]1O[C@@H]1O[C@H](CO)[C@@H](O)[C@H](O)[C@H]1O)C(C)(C)O)[C@H]1CC[C@@]2(C)[C@@H]3CC=C4[C@@H](CC[C@H](O[C@@H]5O[C@H](CO[C@@H]6O[C@H](CO)[C@@H](O)[C@H](O)[C@H]6O)[C@@H](O)[C@H](O)[C@H]5O)C4(C)C)[C@]3(C)[C@H](O)C[C@]12C [mogroside V]
natural sweetness, times of that of sugar [1]: 256-344 times of that of sugar
